In ChEMBL document CHEMBL3714725, “Diaminopyrimidines as P2X3 and P2X2/3 modulators” (2010):
Active and inactive are the calls of the source. How the calls were made is not given here.

system: Rattus norvegicus; test: Cmax in Crl:WI(GLx/BRL/Han)IGS BR(Hanover-Wistar) rat assessed as (5-(5-Iodo-2-isopropyl-4-methoxy-phenoxy)-pyrimidine-2,4-diamine) level at 0.127 mmol, po after 0.5 to 24 hrs by HPLC method; assay type: ADME, organism-based; set-up: dose 0.127 mmol, route oral; conditions: in vivo

| SMILES | Cmax [ng/mL] |
| --- | --- |
| COc1cc(C(C)C)c(Oc2cnc(NC(=O)C(C)C)nc2N)cc1I | 61.9 |

molecular target: T1, P2X purinoceptor 3 (Rattus norvegicus) (UniProt P49654); test: Antagonist activity against rat P2X3 receptor expressed in CHOK1 cells assessed as inhibition of alpha,beta-meATP-induced calcium response incubated for 20 mins by Fluo-3AM dye based FLIPR assay; assay type: functional, cell-based; conditions: CHO-K1
T1 sequence (whole entry): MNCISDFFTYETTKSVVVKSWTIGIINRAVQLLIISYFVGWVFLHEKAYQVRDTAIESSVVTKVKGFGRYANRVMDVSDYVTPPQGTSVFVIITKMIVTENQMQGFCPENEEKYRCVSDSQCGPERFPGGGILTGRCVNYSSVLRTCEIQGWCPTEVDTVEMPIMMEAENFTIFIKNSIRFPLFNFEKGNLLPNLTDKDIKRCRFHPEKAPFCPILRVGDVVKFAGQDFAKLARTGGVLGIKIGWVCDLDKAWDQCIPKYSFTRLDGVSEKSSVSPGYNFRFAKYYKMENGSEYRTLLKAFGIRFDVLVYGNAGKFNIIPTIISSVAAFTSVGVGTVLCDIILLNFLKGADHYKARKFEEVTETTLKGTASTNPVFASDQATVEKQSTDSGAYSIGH

| SMILES | inhibition |
| --- | --- |
| COc1cc(C(C)C)c(Oc2cnc(NC(=O)N3CCC(C)CC3)nc2N)cc1I | Active |
| COc1cc(C(C)C)c(Oc2cnc(NC(=O)c3ccnnc3)nc2N)cc1I | Active |
| COc1cc(C(C)C)c(Oc2cnc(NC(=O)N3CCC(N(C)C)CC3)nc2N)cc1I | Active |
| COc1cc(C(C)C)c(Oc2cnc(N)nc2NC(=O)c2cccn2C)cc1I | Active |
| COc1cc(C(C)C)c(Oc2cnc(NC(=O)[C@@H]3CCCO3)nc2N)cc1I | Active |
| C#Cc1cc(Oc2cnc(NC(=O)CC(C)(C)C)nc2N)c(C(C)C)cc1OC | Active |
| COc1cc(C(C)C)c(Oc2cnc(NC(=O)C(C)(C)OC(C)=O)nc2N)cc1I | Active |
| CC[C@@H](C)[C@@H](N)C(=O)Nc1ncc(Oc2cc(I)c(OC)cc2C(C)C)c(N)n1 | Active |
| COc1cc(C(C)C)c(Oc2cnc(NC(=O)C(C)C)nc2NC(=O)C(C)C)cc1I | Active |
| COc1cc(C(C)C)c(Oc2cnc(N)nc2NC(=O)c2ccco2)cc1I | Active |
| COc1cc(C(C)C)c(Oc2cnc(NC(=O)C(C)(C)C)nc2N)cc1I | Active |
| COc1cc(C(C)C)c(Oc2cnc(NC(=O)c3ccco3)nc2N)cc1I | Active |
| C#Cc1cc(Oc2cnc(N)nc2NC(=O)c2ccccc2)c(C(C)C)cc1OC | Active |
| CCCCC(=O)Nc1ncc(Oc2cc(I)c(OC)cc2C(C)C)c(N)n1 | Active |
| COc1cc(C(C)C)c(Oc2cnc(N)nc2NC(=O)c2ccccn2)cc1I | Active |
| COc1cc(C(C)C)c(Oc2cnc(NC(=O)Cc3cccnc3)nc2N)cc1I | Active |
| COCCOCC(=O)Nc1nc(N)ncc1Oc1cc(I)c(OC)cc1C(C)C | Active |
| C#Cc1cc(Oc2cnc(N)nc2NC(=O)CC(C)(C)C)c(C(C)C)cc1OC | Active |
| COc1cc(C(C)C)c(Oc2cnc(NC(=O)N3CCOCC3)nc2NC(=O)N2CCOCC2)cc1I | Active |
| COc1cc(C(C)C)c(Oc2cnc(NC(=O)C(C)(C)O)nc2N)cc1I | Active |
| COc1cc(C(C)C)c(Oc2cnc(N)nc2NC(=O)c2ccccc2)cc1I | Active |
| COc1cc(C(C)C)c(Oc2cnc(NC(=O)c3cnc[nH]3)nc2N)cc1I | Active |
| COc1cc(C(C)C)c(Oc2cnc(NC(=O)C3CCCN3C(C)=O)nc2N)cc1I (centres undefined) | Active |
| CCC(C)(C)C(=O)Nc1ncc(Oc2cc(I)c(OC)cc2C(C)C)c(N)n1 | Active |

| SMILES | inhibition |
| --- | --- |
| COc1cc(C(C)C)c(Oc2cnc(NC(=O)COC(C)=O)nc2NC(=O)COC(C)=O)cc1I | Active |
| C#Cc1cc(Oc2cnc(NC(C)=O)nc2N)c(C(C)C)cc1OC | Active |
| CCC(C)C(=O)Nc1ncc(Oc2cc(I)c(OC)cc2C(C)C)c(N)n1 (centres undefined) | Active |
| COc1cc(C(C)C)c(Oc2cnc(N)nc2NC(=O)C2CCN(C)CC2)cc1I | Active |
| COc1cc(C(C)C)c(Oc2cnc(NC(=O)N3CCN(C)CC3)nc2N)cc1I | Active |
| COc1cc(C(C)C)c(Oc2cnc(NC(=O)COC(C)=O)nc2N)cc1I | Active |
| C#Cc1cc(Oc2cnc(NC(=O)c3ccccc3)nc2N)c(C(C)C)cc1OC | Active |
| CCC(C)(C)C(=O)Nc1nc(N)ncc1Oc1cc(I)c(OC)cc1C(C)C | Active |
| COc1cc(C(C)C)c(Oc2cnc(NC(C)=O)nc2NC(C)=O)cc1I | Active |
| COc1cc(C(C)C)c(Oc2cnc(NC(=O)C(N)C(C)C)nc2N)cc1I (centres undefined) | Active |
| C#Cc1cc(Oc2cnc(NC(=O)C(C)(C)C)nc2NC(=O)C(C)(C)C)c(C(C)C)cc1OC | Active |
| COc1cc(C(C)C)c(Oc2cnc(NC(=O)N3CCCCC3)nc2N)cc1I | Active |
| COCCOCC(=O)Nc1ncc(Oc2cc(I)c(OC)cc2C(C)C)c(N)n1 | Active |
| CCCC(=O)Nc1ncc(Oc2cc(I)c(OC)cc2C(C)C)c(NC(=O)CCC)n1 | Active |
| C#Cc1cc(Oc2cnc(N)nc2NC(=O)c2cccn2C)c(C(C)C)cc1OC | Active |
| COc1cc(C(C)C)c(Oc2cnc(N)nc2NC(=O)C(C)(C)C)cc1I | Active |
| COc1cc(C(C)C)c(Oc2cnc(NC(=O)c3ccccn3)nc2N)cc1I | Active |
| COc1cc(C(C)C)c(Oc2cnc(NC(=O)CC(C)C)nc2N)cc1I | Active |
| COc1cc(C(C)C)c(Oc2cnc(N)nc2NC(=O)c2cnc(C)cn2)cc1I | Active |
| COc1cc(C(C)C)c(Oc2cnc(NC(=O)[C@@H]3CCCN3)nc2N)cc1I | Active |
| COc1cc(C(C)C)c(Oc2cnc(NC(=O)CCC(=O)O)nc2N)cc1I | Active |
| COc1cc(C(C)C)c(Oc2cnc(N)nc2NC(=O)C2CCN(C(C)=O)CC2)cc1I | Active |
| COc1cc(C(C)C)c(Oc2cnc(NC(C)=O)nc2N)cc1I | Active |
| COc1cc(C(C)C)c(Oc2cnc(NC(=O)C3CCN(C)CC3)nc2N)cc1I | Active |

| SMILES | inhibition |
| --- | --- |
| COc1cc(C(C)C)c(Oc2cnc(NC(=O)CC(C)C)nc2NC(=O)CC(C)C)cc1I | Active |
| COc1cc(C(C)C)c(Oc2cnc(NC(=O)CO)nc2N)cc1I | Active |
| COc1cc(C(C)C)c(Oc2cnc(NC(=O)c3ccccc3)nc2N)cc1I | Active |
| CC[C@@H](C)[C@@H](N)C(=O)Nc1nc(N)ncc1Oc1cc(I)c(OC)cc1C(C)C | Active |
| COc1cc(C(C)C)c(Oc2cnc(NC(=O)c3cnc(C)cn3)nc2N)cc1I | Active |
| COc1cc(C(C)C)c(Oc2cnc(NC(=O)OCC(C)C)nc2N)cc1I | Active |
| COc1cc(C(C)C)c(Oc2cnc(N)nc2NC(=O)c2cnc[nH]2)cc1I | Active |
| CCCCC(=O)Nc1ncc(Oc2cc(I)c(OC)cc2C(C)C)c(NC(=O)CCCC)n1 | Active |
| C#Cc1cc(Oc2cnc(N)nc2NC(=O)CCC)c(C(C)C)cc1OC | Active |
| COc1cc(C(C)C)c(Oc2cnc(NC(=O)C3CCN(C(C)=O)CC3)nc2NC(=O)C2CCN(C(C)=O)CC2)cc1I | Active |
| COc1cc(C(C)C)c(Oc2cnc(N)nc2NC(=O)c2cnccn2)cc1I | Active |
| CCOC(=O)Nc1ncc(Oc2cc(I)c(OC)cc2C(C)C)c(N)n1 | Active |
| COc1cc(C(C)C)c(Oc2cnc(N)nc2NC(=O)C2CCOCC2)cc1I | Active |
| COc1cc(C(C)C)c(Oc2cnc(NC(=O)N3CCC(O)CC3)nc2N)cc1I | Active |
| COc1cc(C(C)C)c(Oc2cnc(NC(=O)c3ccncc3)nc2N)cc1I | Active |
| COc1cc(C(C)C)c(Oc2cnc(NC(=O)c3cnccn3)nc2N)cc1I | Active |
| COc1cc(C(C)C)c(Oc2cnc(NC(=O)N3CCOCC3)nc2N)cc1I | Active |
| CCCC(=O)Nc1ncc(Oc2cc(I)c(OC)cc2C(C)C)c(N)n1 | Active |
| COc1cc(C(C)C)c(Oc2cnc(NC(=O)c3cccnc3)nc2N)cc1I | Active |
| COc1cc(C(C)C)c(Oc2cnc(NC(=O)[C@H](N)[C@H](C)C(C)C)nc2N)cc1I | Active |
| C#Cc1cc(Oc2cnc(NC(=O)CCC)nc2N)c(C(C)C)cc1OC | Active |
| COc1cc(C(C)C)c(Oc2cnc(N)nc2NC(=O)[C@@H]2CCCO2)cc1I | Active |
| CCOC(=O)Nc1ncc(Oc2cc(I)c(OC)cc2C(C)C)c(NC(=O)OCC)n1 | Active |
| COCC(=O)Nc1ncc(Oc2cc(I)c(OC)cc2C(C)C)c(N)n1 | Active |

system: Rattus norvegicus; test: AUC in Crl:WI(GLx/BRL/Han)IGS BR(Hanover-Wistar) rat assessed as (5-(5-Iodo-2-isopropyl-4-methoxy-phenoxy)-pyrimidine-2,4-diamine) level at 0.127 mmol, po after 0.5 to 24 hrs by HPLC method; assay type: ADME, organism-based; set-up: time upper 24 hr, time lower 0.5 hr, dose 0.127 mmol, route oral; conditions: in vivo

| SMILES | AUC [ng·h/mL] |
| --- | --- |
| COc1cc(C(C)C)c(Oc2cnc(NC(=O)C(C)C)nc2N)cc1I | 200 |
